Legend:
FASN = FASN (Mus musculus, UniProt P19096); details: Loftus et al 2000; cited from earlier work
[1] = test system: LDHA expression in HepG2 cells; assay: Wet lab validation of LDHA expression in HepG2 cells; assay type: cell-based; details: 50 uM or 100 uM CoQ10 for 24 or 48 hours
Procedure: Protein accession number P00338 is LDHA. Wet lab validation of proteomics data were performed for LDHA expression in HepG2 cells (see FIG. 20).

Bcl2 in melanoma cell = assay: Bcl2 level in melanoma cell in the presence of VEGF; assay type: cell-based
Source text: (§1) The term “Multidimensional Intracellular Molecule (MIM)”, is an isolated version or synthetically produced version of an endogenous molecule that is naturally produced by the body and/or is present in at least one cell of a human. A MIM is capable of entering a cell and the entry into the cell includes complete or partial entry into the cell as long as the biologically active portion of the molecule wholly enters the cell. MIMs are capable of inducing a signal transduction and/or gene expression mechanism within a cell. MIMs are multidimensional because the molecules have both a therapeutic and a carrier, e.g., drug delivery, effect. MIMs also are multidimensional because the molecules act one way in a disease state and a different way in a normal state. For example, in the case of CoQ-10, administration of CoQ-10 to a melanoma cell in the presence of VEGF leads to a decreased level of Bcl2 which, in turn, leads to a decreased oncogenic potential for the melanoma cell. In contrast, in a normal fibroblast, co-administration of CoQ-10 and VEFG has no effect on the levels of Bcl2.

[2] = test system: Bcl2 in normal fibroblast; assay: Bcl2 level in normal fibroblast with VEGF co-administration; assay type: cell-based
Source text: as §1

[3] = test system: human mitochondrial energy metabolism genes; assay: Transcriptional profiling of diabetic cardiomyocytes; assay type: cell-based; details: diabetic cardiomyocytes treated with diabetic drug plus rescue molecule (T+R) vs untreated (UT)
Procedure: Human cardiomyocytes were subject to conditions simulating an diabetic environment experienced by the disease-relevant cells in vivo. Specifically, the cells were exposed to hyperglycemic conditions and hyperlipidemia conditions. The hyperglycemic condition was induced by culturing cells in media containing 22 mM glucose. The hyperlipidemia condition was induced by culturing the cells in media containing 1 mM L-carnitine, 0.7 mM Oleic acid and 0.7 mM Linoleic acid. […]
iProfiling of changes in total cellular protein expression by quantitative proteomics was performed for cell and media samples collected for each condition and with each “environmental perturbation”, i.e, diabetic drug treatment, Coenzyme Q10 treatment or both, using the techniques described above in the detailed description. […] Following data collection (Ct), the final fold change over control was determined using the δCt method as outlined in manufacturer's protocol. […] Functional assays such as Oxygen consumption rate OCR were measured by employing the Seahorse analyzer essentially as recommended by the manufacturer. OCR was recorded by the electrodes in a 7 μl chamber created with the cartridge pushing against the seahorse culture plate. […]

Chain of FASN (P19096 whole entry): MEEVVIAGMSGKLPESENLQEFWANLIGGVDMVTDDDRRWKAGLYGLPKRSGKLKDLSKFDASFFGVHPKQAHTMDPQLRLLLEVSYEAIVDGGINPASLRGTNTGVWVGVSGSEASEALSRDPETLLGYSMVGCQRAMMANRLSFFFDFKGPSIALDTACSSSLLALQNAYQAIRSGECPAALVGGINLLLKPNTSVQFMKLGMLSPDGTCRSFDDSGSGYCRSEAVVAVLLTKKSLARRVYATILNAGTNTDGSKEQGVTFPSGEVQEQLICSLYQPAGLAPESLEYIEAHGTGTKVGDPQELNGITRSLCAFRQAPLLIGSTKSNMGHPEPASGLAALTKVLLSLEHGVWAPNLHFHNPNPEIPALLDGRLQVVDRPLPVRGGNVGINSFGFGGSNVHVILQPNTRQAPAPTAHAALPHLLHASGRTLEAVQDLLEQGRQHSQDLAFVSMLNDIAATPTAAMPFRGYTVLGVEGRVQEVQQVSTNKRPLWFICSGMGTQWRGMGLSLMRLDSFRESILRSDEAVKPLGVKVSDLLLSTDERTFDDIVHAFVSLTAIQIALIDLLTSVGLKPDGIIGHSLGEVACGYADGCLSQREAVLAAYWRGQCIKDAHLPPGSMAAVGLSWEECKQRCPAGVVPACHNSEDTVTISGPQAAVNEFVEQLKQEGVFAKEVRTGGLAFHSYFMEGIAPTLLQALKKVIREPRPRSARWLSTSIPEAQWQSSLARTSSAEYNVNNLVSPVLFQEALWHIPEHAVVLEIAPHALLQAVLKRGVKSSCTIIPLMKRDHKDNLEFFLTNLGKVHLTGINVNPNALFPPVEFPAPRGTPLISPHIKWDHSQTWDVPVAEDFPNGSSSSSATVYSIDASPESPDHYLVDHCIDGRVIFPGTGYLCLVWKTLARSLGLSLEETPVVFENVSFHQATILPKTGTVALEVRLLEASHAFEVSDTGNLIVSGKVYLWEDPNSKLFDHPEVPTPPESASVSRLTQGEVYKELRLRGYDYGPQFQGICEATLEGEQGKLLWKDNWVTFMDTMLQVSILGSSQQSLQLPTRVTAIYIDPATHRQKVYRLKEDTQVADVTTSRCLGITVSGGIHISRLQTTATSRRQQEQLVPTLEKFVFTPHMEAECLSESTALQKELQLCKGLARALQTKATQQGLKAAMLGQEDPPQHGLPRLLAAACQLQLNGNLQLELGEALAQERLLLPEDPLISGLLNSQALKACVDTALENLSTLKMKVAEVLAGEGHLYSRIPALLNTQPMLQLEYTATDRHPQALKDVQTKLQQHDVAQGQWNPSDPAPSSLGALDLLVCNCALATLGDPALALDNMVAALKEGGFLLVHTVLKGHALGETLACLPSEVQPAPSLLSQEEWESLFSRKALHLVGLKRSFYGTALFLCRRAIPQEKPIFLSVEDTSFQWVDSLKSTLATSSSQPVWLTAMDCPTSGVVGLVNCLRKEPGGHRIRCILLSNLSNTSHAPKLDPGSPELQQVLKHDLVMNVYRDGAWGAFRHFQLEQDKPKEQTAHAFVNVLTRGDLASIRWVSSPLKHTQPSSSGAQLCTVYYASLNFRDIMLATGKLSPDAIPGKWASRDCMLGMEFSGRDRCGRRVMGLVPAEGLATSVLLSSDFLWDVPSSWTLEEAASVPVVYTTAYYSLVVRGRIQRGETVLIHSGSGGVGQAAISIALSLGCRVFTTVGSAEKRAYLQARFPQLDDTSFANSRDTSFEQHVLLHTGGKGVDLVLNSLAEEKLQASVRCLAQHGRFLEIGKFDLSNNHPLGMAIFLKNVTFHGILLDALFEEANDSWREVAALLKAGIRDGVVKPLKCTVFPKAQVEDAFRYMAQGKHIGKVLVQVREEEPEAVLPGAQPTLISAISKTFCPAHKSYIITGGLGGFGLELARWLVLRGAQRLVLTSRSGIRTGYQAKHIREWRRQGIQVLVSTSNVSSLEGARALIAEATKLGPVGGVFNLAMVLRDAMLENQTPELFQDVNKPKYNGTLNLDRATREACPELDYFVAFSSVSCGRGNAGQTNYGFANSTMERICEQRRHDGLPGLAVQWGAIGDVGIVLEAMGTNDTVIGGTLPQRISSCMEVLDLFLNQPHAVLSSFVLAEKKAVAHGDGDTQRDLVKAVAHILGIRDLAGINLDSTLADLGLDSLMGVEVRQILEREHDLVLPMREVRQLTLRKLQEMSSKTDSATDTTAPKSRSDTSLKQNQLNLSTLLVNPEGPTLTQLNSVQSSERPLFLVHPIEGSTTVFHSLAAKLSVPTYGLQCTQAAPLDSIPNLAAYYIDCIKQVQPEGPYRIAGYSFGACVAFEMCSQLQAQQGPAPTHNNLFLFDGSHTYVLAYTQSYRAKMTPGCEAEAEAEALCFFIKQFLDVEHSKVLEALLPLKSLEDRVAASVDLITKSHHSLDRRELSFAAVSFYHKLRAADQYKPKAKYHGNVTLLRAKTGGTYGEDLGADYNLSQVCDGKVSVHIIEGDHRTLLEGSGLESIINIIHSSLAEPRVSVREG

gene expression and transcription of mitochondrial energy metabolism genes, rescue [3]	gene expression and transcription of mitochondrial energy metabolism genes, rescue ([3]; listed as R)	SMILES	food intake (FASN)	weight loss (FASN)	LDHA expression levels [1]	level of Bcl2 (Bcl2 in melanoma cell)	levels of Bcl2 [2]
–	–	C=C1C(=O)OC(CCCCCCCC)C1C(=O)O (stereo not drawn) [C75]	reducing	effectuate weight loss	–	–	–
–	–	C/C=C/C/C=C/CCC(=O)[C@H]1O[C@H]1C(N)=O [Cerulenin]	reducing	effectuate weight loss	–	–	–
normalize	normalizes	COC1=C(OC)C(=O)C(C/C=C(\C)CC/C=C(\C)CC/C=C(\C)CC/C=C(\C)CC/C=C(\C)CC/C=C(\C)CC/C=C(\C)CC/C=C(\C)CC/C=C(\C)CCC=C(C)C)=C(C)C1=O [Coenzyme Q10]	–	–	decreased	decreased	no effect
